In PubChem BioAssay (NCI):
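Values below derive from 48-hour exposures of cells grown in 96-well plates, with endpoints linearly interpolated between the two concentrations bracketing the appropriate inhibition level. At the GI50, growth is halved. Definition used: TGI = concentration required for complete inhibition of growth.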

Key:
Test in all cases: NCI tumour cell line growth inhibition, 48 h
HOP-92 NSCLC = test system: HOP-92 NSCLC
HCT-116 colon = test system: HCT-116 colon
SNB-75 CNS = test system: SNB-75 CNS
OVCAR-3 ovarian = test system: OVCAR-3 ovarian
NCI-H522 lung = test system: NCI-H522 lung
UACC-257 melanoma = test system: UACC-257 melanoma
NCI-H460 lung = test system: NCI-H460 lung
COLO 205 colon = test system: COLO 205 colon
MDA-MB-435 = test system: MDA-MB-435
RPMI-8226 leukemia = test system: RPMI-8226 leukemia
K-562 leukemia = test system: K-562 leukemia
SK-MEL-2 melanoma = test system: SK-MEL-2 melanoma
SK-MEL-5 melanoma = test system: SK-MEL-5 melanoma
IGROV1 ovarian = test system: IGROV1 ovarian
HCC-2998 colon = test system: HCC-2998 colon
SF-295 CNS = test system: SF-295 CNS
MOLT-4 leukemia = test system: MOLT-4 leukemia
SNB-19 CNS = test system: SNB-19 CNS
SF-268 CNS = test system: SF-268 CNS
SR leukemia = test system: SR leukemia
U251 CNS = test system: U251 CNS
UACC-62 melanoma = test system: UACC-62 melanoma
LOX IMVI melanoma = test system: LOX IMVI melanoma
UO-31 renal = test system: UO-31 renal
PC-3 prostate = test system: PC-3 prostate
OVCAR-5 ovarian = test system: OVCAR-5 ovarian
NCI/ADR-RES ovarian = test system: NCI/ADR-RES ovarian
SK-OV-3 ovarian = test system: SK-OV-3 ovarian
A549 NSCLC = test system: A549 NSCLC
MALME-3M melanoma = test system: MALME-3M melanoma
HCT-15 colon = test system: HCT-15 colon
OVCAR-8 ovarian = test system: OVCAR-8 ovarian
BT-549 breast = test system: BT-549 breast
SN12C renal = test system: SN12C renal
M14 melanoma = test system: M14 melanoma
A498 renal = test system: A498 renal
OVCAR-4 ovarian = test system: OVCAR-4 ovarian
SK-MEL-28 melanoma = test system: SK-MEL-28 melanoma
HOP-62 NSCLC = test system: HOP-62 NSCLC
RXF 393 renal = test system: RXF 393 renal
SW-620 colon = test system: SW-620 colon
HT29 colon = test system: HT29 colon
NCI-H23 lung = test system: NCI-H23 lung
NCI-H226 lung = test system: NCI-H226 lung
DU-145 prostate = test system: DU-145 prostate
ACHN renal = test system: ACHN renal
SF-539 CNS = test system: SF-539 CNS
CCRF-CEM leukemia = test system: CCRF-CEM leukemia
MDA-MB-231 breast = test system: MDA-MB-231 breast
HS 578T breast = test system: HS 578T breast
KM12 colon = test system: KM12 colon
HL-60(TB) leukemia = test system: HL-60(TB) leukemia
EKVX NSCLC = test system: EKVX NSCLC
MCF7 breast = test system: MCF7 breast
T-47D breast = test system: T-47D breast
786-0 renal = test system: 786-0 renal
CAKI-1 renal = test system: CAKI-1 renal
TK-10 renal = test system: TK-10 renal

`Clc1ccc(Nc2nnc(CNc3ccccc3)c3ccccc23)cc1` showed a GI50 (HOP-92 NSCLC) of 0.777 µM, a TGI (HOP-92 NSCLC) of 6.3 µM and a GI50 (HCT-116 colon) of 1.2 µM. It also gave a TGI (HCT-116 colon) of 5.02 µM, a GI50 (SNB-75 CNS) of 0.871 µM and a TGI (SNB-75 CNS) of 7.05 µM. For the same compound, the GI50 (OVCAR-3 ovarian) was 3.51 µM, the TGI (OVCAR-3 ovarian) was 8.69 µM and the GI50 (NCI-H522 lung) was 0.684 µM. For the same compound, the TGI (NCI-H522 lung) was 4.62 µM, the GI50 (UACC-257 melanoma) was 2.74 µM and the TGI (UACC-257 melanoma) was 6.87 µM. For the same compound, the GI50 (NCI-H460 lung) was 3.21 µM, the TGI (NCI-H460 lung) was 9.97 µM and the GI50 (COLO 205 colon) was 0.915 µM. The TGI (COLO 205 colon) was 5.39 µM, the GI50 (MDA-MB-435) was 1.47 µM and the TGI (MDA-MB-435) was 7.88 µM. For the same compound, the GI50 (RPMI-8226 leukemia) was 2.1 µM, the TGI (RPMI-8226 leukemia) was 7.71 µM and the GI50 (K-562 leukemia) was 1.71 µM. It also gave a TGI (K-562 leukemia) of 14.5 µM, a GI50 (SK-MEL-2 melanoma) of 2.16 µM and a TGI (SK-MEL-2 melanoma) of 5.83 µM. For the same compound, the GI50 (SK-MEL-5 melanoma) was 2.08 µM, the TGI (SK-MEL-5 melanoma) was 5.27 µM and the GI50 (IGROV1 ovarian) was 1.93 µM. It also gave a TGI (IGROV1 ovarian) of 10.7 µM, a GI50 (HCC-2998 colon) of 4.85 µM and a TGI (HCC-2998 colon) of 15.9 µM. For the same compound, the GI50 (SF-295 CNS) was 2.98 µM, the TGI (SF-295 CNS) was 8.77 µM and the GI50 (MOLT-4 leukemia) was 1.71 µM. For the same compound, the TGI (MOLT-4 leukemia) was 8.74 µM, the GI50 (SNB-19 CNS) was 4.71 µM and the TGI (SNB-19 CNS) was 22.7 µM. For the same compound, the GI50 (SF-268 CNS) was 3.28 µM, the TGI (SF-268 CNS) was 14.5 µM and the GI50 (SR leukemia) was 1.75 µM. The TGI (SR leukemia) was 12.3 µM, the GI50 (U251 CNS) was 3.28 µM and the TGI (U251 CNS) was 7.33 µM. The GI50 (UACC-62 melanoma) was 1.25 µM, the TGI (UACC-62 melanoma) was 5.7 µM and the GI50 (LOX IMVI melanoma) was 1.57 µM. It also gave a TGI (LOX IMVI melanoma) of 4.97 µM, a GI50 (UO-31 renal) of 1.36 µM and a TGI (UO-31 renal) of 6.66 µM. It also gave a GI50 (PC-3 prostate) of 1.91 µM, a TGI (PC-3 prostate) of 14.4 µM and a GI50 (OVCAR-5 ovarian) of 4.92 µM. It also gave a TGI (OVCAR-5 ovarian) greater than 25 µM, a GI50 (NCI/ADR-RES ovarian) of 4.12 µM and a TGI (NCI/ADR-RES ovarian) of 17 µM. For the same compound, the GI50 (SK-OV-3 ovarian) was 3.17 µM, the TGI (SK-OV-3 ovarian) was 11.4 µM and the GI50 (A549 NSCLC) was 3.17 µM. The TGI (A549 NSCLC) was 20 µM, the GI50 (MALME-3M melanoma) was 2.66 µM and the TGI (MALME-3M melanoma) was 9.92 µM. For the same compound, the GI50 (HCT-15 colon) was 2.99 µM, the TGI (HCT-15 colon) was 9.39 µM and the GI50 (OVCAR-8 ovarian) was 4.63 µM. It also gave a TGI (OVCAR-8 ovarian) of 16.8 µM, a GI50 (BT-549 breast) of 2.93 µM and a TGI (BT-549 breast) of 8.2 µM. For the same compound, the GI50 (SN12C renal) was 3.95 µM, the TGI (SN12C renal) was 18.9 µM and the GI50 (M14 melanoma) was 1.74 µM. It also gave a TGI (M14 melanoma) of 6.65 µM, a GI50 (A498 renal) of 1.45 µM and a TGI (A498 renal) of 6.06 µM. It also gave a GI50 (OVCAR-4 ovarian) of 3 µM, a TGI (OVCAR-4 ovarian) greater than 25 µM and a GI50 (SK-MEL-28 melanoma) of 3.67 µM. For the same compound, the TGI (SK-MEL-28 melanoma) was 10.5 µM, the GI50 (HOP-62 NSCLC) was 2.86 µM and the TGI (HOP-62 NSCLC) was 8.84 µM. It also gave a GI50 (RXF 393 renal) of 2.6 µM, a TGI (RXF 393 renal) of 8.12 µM and a GI50 (SW-620 colon) of 3.84 µM. For the same compound, the TGI (SW-620 colon) was 11.1 µM, the GI50 (HT29 colon) was 1.46 µM and the TGI (HT29 colon) was 6.36 µM. It also gave a GI50 (NCI-H23 lung) of 2.5 µM, a TGI (NCI-H23 lung) of 16.4 µM and a GI50 (NCI-H226 lung) of 2.52 µM. The TGI (NCI-H226 lung) was 7.98 µM, the GI50 (DU-145 prostate) was 4.55 µM and the TGI (DU-145 prostate) was greater than 25 µM. The GI50 (ACHN renal) was 3.1 µM, the TGI (ACHN renal) was greater than 25 µM and the GI50 (SF-539 CNS) was 3.67 µM. The TGI (SF-539 CNS) was 8.09 µM, the GI50 (CCRF-CEM leukemia) was 3.53 µM and the TGI (CCRF-CEM leukemia) was 17.6 µM. For the same compound, the GI50 (MDA-MB-231 breast) was 1.95 µM, the TGI (MDA-MB-231 breast) was 8.73 µM and the GI50 (HS 578T breast) was 2.95 µM. For the same compound, the TGI (HS 578T breast) was 12.9 µM, the GI50 (KM12 colon) was 3.05 µM and the TGI (KM12 colon) was 9.92 µM. For the same compound, the GI50 (HL-60(TB) leukemia) was 3.71 µM, the TGI (HL-60(TB) leukemia) was 13 µM and the GI50 (EKVX NSCLC) was 1.61 µM. The TGI (EKVX NSCLC) was 15 µM, the GI50 (MCF7 breast) was 2.68 µM and the TGI (MCF7 breast) was 11.1 µM. The GI50 (T-47D breast) was 1.17 µM, the TGI (T-47D breast) was 8.28 µM and the GI50 (786-0 renal) was 4.01 µM. It also gave a TGI (786-0 renal) of 12.5 µM.
`CN(C)c1nc(N)nc(CCl)n1` gave a TGI (HOP-92 NSCLC) of 45.6 µM, a TGI (HCT-116 colon) greater than 100 µM and a TGI (SNB-75 CNS) of 11.3 µM. For the same compound, the TGI (OVCAR-3 ovarian) was 49 µM, the TGI (NCI-H522 lung) was 25 µM and the TGI (UACC-257 melanoma) was greater than 100 µM. It also gave a TGI (NCI-H460 lung) greater than 100 µM, a TGI (COLO 205 colon) of 61.8 µM and a TGI (MDA-MB-435) greater than 100 µM. It also gave a TGI (RPMI-8226 leukemia) greater than 100 µM, a TGI (K-562 leukemia) of 84.4 µM and a TGI (SK-MEL-2 melanoma) greater than 100 µM. It also gave a TGI (SK-MEL-5 melanoma) of 90.6 µM, a TGI (IGROV1 ovarian) of 35 µM and a TGI (HCC-2998 colon) greater than 100 µM. For the same compound, the TGI (SF-295 CNS) was greater than 100 µM, the TGI (MOLT-4 leukemia) was greater than 100 µM and the TGI (SNB-19 CNS) was greater than 100 µM. For the same compound, the TGI (SF-268 CNS) was greater than 100 µM, the TGI (SR leukemia) was 65.8 µM and the TGI (U251 CNS) was greater than 100 µM. It also gave a TGI (UACC-62 melanoma) of 41.5 µM, a TGI (LOX IMVI melanoma) of 21.9 µM and a TGI (UO-31 renal) of 26.1 µM. For the same compound, the TGI (PC-3 prostate) was greater than 100 µM, the TGI (OVCAR-5 ovarian) was greater than 100 µM and the TGI (NCI/ADR-RES ovarian) was 86.8 µM. For the same compound, the TGI (SK-OV-3 ovarian) was greater than 100 µM, the TGI (A549 NSCLC) was greater than 100 µM and the TGI (HCT-15 colon) was 93 µM. For the same compound, the TGI (OVCAR-8 ovarian) was greater than 100 µM, the TGI (BT-549 breast) was greater than 100 µM and the TGI (SN12C renal) was greater than 100 µM. For the same compound, the TGI (M14 melanoma) was greater than 100 µM, the TGI (A498 renal) was 70.8 µM and the TGI (OVCAR-4 ovarian) was 38.2 µM. It also gave a TGI (CAKI-1 renal) of 18 µM, a TGI (SK-MEL-28 melanoma) greater than 100 µM and a TGI (HOP-62 NSCLC) of 46.8 µM. For the same compound, the TGI (RXF 393 renal) was greater than 100 µM, the TGI (SW-620 colon) was 87.7 µM and the TGI (HT29 colon) was greater than 100 µM. It also gave a TGI (TK-10 renal) greater than 100 µM, a TGI (NCI-H23 lung) of 68.9 µM and a TGI (NCI-H226 lung) greater than 100 µM. The TGI (DU-145 prostate) was greater than 100 µM, the TGI (ACHN renal) was 39.7 µM and the TGI (SF-539 CNS) was 60.2 µM. For the same compound, the TGI (CCRF-CEM leukemia) was 58.6 µM, the TGI (MDA-MB-231 breast) was 72.4 µM and the TGI (HS 578T breast) was greater than 100 µM. It also gave a TGI (KM12 colon) greater than 100 µM, a TGI (HL-60(TB) leukemia) of 78.2 µM and a TGI (EKVX NSCLC) of 41.6 µM. For the same compound, the TGI (MCF7 breast) was greater than 100 µM, the TGI (T-47D breast) was greater than 100 µM and the TGI (786-0 renal) was 58.3 µM.
